Laboratory results taken from ChEMBL document CHEMBL1135703, “Synthesis and biological activity of a novel class of small molecular weight peptidomimetic competitive inhibitors of protein tyrosine phosphatase 1B” (2002).

Molecular target: T1, Tyrosine-protein phosphatase non-receptor type 1 (Rattus norvegicus) (UniProt P20417)
T1 sequence (whole entry): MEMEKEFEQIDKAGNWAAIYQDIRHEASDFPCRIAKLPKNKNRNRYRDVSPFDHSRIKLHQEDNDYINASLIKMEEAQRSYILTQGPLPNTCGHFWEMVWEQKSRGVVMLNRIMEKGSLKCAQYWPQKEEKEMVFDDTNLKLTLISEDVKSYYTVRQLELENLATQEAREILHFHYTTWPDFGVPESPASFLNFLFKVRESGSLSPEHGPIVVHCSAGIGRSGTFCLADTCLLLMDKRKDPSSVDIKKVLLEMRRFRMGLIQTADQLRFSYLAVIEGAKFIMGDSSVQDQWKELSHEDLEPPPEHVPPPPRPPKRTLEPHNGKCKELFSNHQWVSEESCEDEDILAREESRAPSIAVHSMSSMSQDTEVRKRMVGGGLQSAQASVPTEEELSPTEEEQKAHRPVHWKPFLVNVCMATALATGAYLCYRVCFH
Test: Percent inhibition of Protein-tyrosine phosphatase 1 (PTP) assayed at 100 uM
Conditions: not given

| SMILES | inhibition |
| --- | --- |
| CCCCCNC(=O)C(Cc1ccc(OC(C(=O)O)C(=O)O)cc1)NC(=O)[C@H](Cc1ccccc1)NC(=O)OC(C)(C)C (stereo partly specified) | 88% |
| CCCCCNC(=O)C(Cc1ccc(OC(C(=O)O)C(=O)O)cc1)NC(=O)[C@H](C)NC(=O)OC(C)(C)C (stereo partly specified) | 76% |
| CCCCCNC(=O)C(Cc1ccc(OCC(=O)O)c(C(=O)O)c1)NC(=O)[C@H](Cc1ccccc1)NC(=O)OC(C)(C)C (stereo partly specified) | 84% |
| CCCCCNC(=O)C(Cc1ccc(OC(C(=O)O)C(=O)O)cc1)NC(=O)CCC(=O)O (stereo unspecified) | 76% |
| CCCCCNC(=O)C(Cc1ccc(OS(=O)(=O)O)cc1)NC(=O)CCC(=O)O (stereo unspecified) | 80% |
| CCCCCNC(=O)C(Cc1ccc(OCC(N)=O)c(C(=O)O)c1)NC(=O)CCC(=O)O (stereo unspecified) | 16% |
| CCCCCNC(=O)C(Cc1ccc(OC(C(=O)O)C(=O)O)cc1)NC(=O)[C@H](CC(=O)O)NC(=O)CCC(=O)O (stereo partly specified) | 96% |
| CCCCCNC(=O)C(Cc1ccc(OC(C(=O)O)C(=O)O)cc1)NC(=O)[C@H](Cc1ccccc1)NC(=O)CCC(=O)O (stereo partly specified) | 97% |
| CCCCCNC(=O)C(Cc1ccc(OC(C(=O)O)C(=O)O)c(F)c1)NC(=O)CCC(=O)O (stereo unspecified) | 78% |
| CCCCCNC(=O)C(Cc1ccc(OC(C(=O)O)C(=O)O)cc1)NC(=O)[C@H](Cc1ccc(OC)cc1)NC(=O)OC(C)(C)C (stereo partly specified) | 90% |
| CCCCCNC(=O)C(Cc1ccc(OC(C(=O)O)C(=O)O)cc1)NC(=O)[C@H](CC(=O)O)NC(=O)OC(C)(C)C (stereo partly specified) | 90% |
| CCCCCNC(=O)C(Cc1ccc(OC(C(=O)O)C(=O)O)cc1)NC(=O)[C@H]1CCCC[C@H]1C(=O)O (stereo partly specified) | 62% |

Molecular target: T2, Tyrosine-protein phosphatase non-receptor type 11 (Mus musculus) (UniProt P35235)
T2 sequence (whole entry): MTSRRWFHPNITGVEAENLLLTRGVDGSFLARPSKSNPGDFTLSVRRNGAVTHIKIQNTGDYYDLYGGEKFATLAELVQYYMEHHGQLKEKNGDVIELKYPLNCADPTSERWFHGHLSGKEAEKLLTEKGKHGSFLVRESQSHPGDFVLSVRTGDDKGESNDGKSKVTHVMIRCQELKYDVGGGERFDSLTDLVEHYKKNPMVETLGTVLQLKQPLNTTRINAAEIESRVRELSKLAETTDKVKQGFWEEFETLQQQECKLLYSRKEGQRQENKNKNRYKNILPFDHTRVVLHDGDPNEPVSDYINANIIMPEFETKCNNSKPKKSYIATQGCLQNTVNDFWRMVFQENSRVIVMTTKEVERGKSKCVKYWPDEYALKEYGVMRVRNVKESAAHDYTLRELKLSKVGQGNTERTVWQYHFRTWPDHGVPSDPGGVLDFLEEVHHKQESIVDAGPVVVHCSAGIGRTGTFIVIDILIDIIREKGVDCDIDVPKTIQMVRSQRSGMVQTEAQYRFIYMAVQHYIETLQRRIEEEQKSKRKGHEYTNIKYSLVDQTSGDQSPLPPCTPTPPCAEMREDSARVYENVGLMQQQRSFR
Test: (§1) Percent inhibition of Tyrosine phosphatase SHP2 SH2 domain containing PTP involved in insulin uM
Set-up: concentration or dose not given beside the values
Conditions: concentration not given here

| SMILES | inhibition |
| --- | --- |
| CCCCCNC(=O)C(Cc1ccc(OC(C(=O)O)C(=O)O)cc1)NC(=O)[C@H](Cc1ccccc1)NC(=O)OC(C)(C)C (stereo partly specified) | 10% |
| CCCCCNC(=O)C(Cc1ccc(OC(C(=O)O)C(=O)O)cc1)NC(=O)[C@H](C)NC(=O)OC(C)(C)C (stereo partly specified) | 3% |
| CCCCCNC(=O)C(Cc1ccc(OCC(=O)O)c(C(=O)O)c1)NC(=O)[C@H](Cc1ccccc1)NC(=O)OC(C)(C)C (stereo partly specified) | 2% |
| CCCCCNC(=O)C(Cc1ccc(OCC(N)=O)c(C(=O)O)c1)NC(=O)CCC(=O)O (stereo unspecified) | 2% |
| CCCCCNC(=O)C(Cc1ccc(OC(C(=O)O)C(=O)O)cc1)NC(=O)[C@H](CC(=O)O)NC(=O)CCC(=O)O (stereo partly specified) | 25% |
| CCCCCNC(=O)C(Cc1ccc(OC(C(=O)O)C(=O)O)cc1)NC(=O)[C@H](Cc1ccccc1)NC(=O)CCC(=O)O (stereo partly specified) | 44% |
| CCCCCNC(=O)C(Cc1ccc(OC(C(=O)O)C(=O)O)c(F)c1)NC(=O)CCC(=O)O (stereo unspecified) | 9% |
| CCCCCNC(=O)C(Cc1ccc(OC(C(=O)O)C(=O)O)cc1)NC(=O)[C@H](Cc1ccc(OC)cc1)NC(=O)OC(C)(C)C (stereo partly specified) | 9% |
| CCCCCNC(=O)C(Cc1ccc(OC(C(=O)O)C(=O)O)cc1)NC(=O)[C@H](CC(=O)O)NC(=O)OC(C)(C)C (stereo partly specified) | 12% |
| CCCCCNC(=O)C(Cc1ccc(OC(C(=O)O)C(=O)O)cc1)NC(=O)[C@H]1CCCC[C@H]1C(=O)O (stereo partly specified) | 13% |

Molecular target: T2, Tyrosine-protein phosphatase non-receptor type 11 (Mus musculus)
Test: as §1
Conditions: concentration not given here

| SMILES | inhibition |
| --- | --- |
| CCCCCNC(=O)C(Cc1ccc(OC(C(=O)O)C(=O)O)cc1)NC(=O)CCC(=O)O (stereo unspecified) | 8% |
| CCCCCNC(=O)C(Cc1ccc(OS(=O)(=O)O)cc1)NC(=O)CCC(=O)O (stereo unspecified) | 6% |

Molecular target: T3, Tyrosine-protein phosphatase non-receptor type 1 (Homo sapiens) (UniProt P18031)
T3 sequence (whole entry): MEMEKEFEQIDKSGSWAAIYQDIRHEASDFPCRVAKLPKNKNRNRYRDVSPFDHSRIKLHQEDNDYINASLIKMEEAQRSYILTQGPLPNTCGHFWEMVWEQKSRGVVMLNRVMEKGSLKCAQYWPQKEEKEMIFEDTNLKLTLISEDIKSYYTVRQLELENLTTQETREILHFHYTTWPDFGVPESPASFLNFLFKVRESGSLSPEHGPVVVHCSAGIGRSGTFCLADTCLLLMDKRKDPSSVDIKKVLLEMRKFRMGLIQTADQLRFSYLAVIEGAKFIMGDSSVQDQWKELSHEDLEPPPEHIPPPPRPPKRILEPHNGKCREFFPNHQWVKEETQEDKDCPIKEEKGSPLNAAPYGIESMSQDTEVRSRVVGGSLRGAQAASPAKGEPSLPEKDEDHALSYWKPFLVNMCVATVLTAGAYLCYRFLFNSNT
Test: Percent inhibition of Protein Tyrosine Phosphatase 1B (PTP 1B) assayed at 100 uM
Conditions: not given

| SMILES | inhibition |
| --- | --- |
| CCCCCNC(=O)C(Cc1ccc(OC(C(=O)O)C(=O)O)cc1)NC(=O)[C@H](Cc1ccccc1)NC(=O)OC(C)(C)C (stereo partly specified) | 91% |
| CCCCCNC(=O)C(Cc1ccc(OC(C(=O)O)C(=O)O)cc1)NC(=O)[C@H](C)NC(=O)OC(C)(C)C (stereo partly specified) | 83% |
| CCCCCNC(=O)C(Cc1ccc(OCC(=O)O)c(C(=O)O)c1)NC(=O)[C@H](Cc1ccccc1)NC(=O)OC(C)(C)C (stereo partly specified) | 78% |
| CCCCCNC(=O)C(Cc1ccc(OC(C(=O)O)C(=O)O)cc1)NC(=O)CCC(=O)O (stereo unspecified) | 80% |
| CCCCCNC(=O)C(Cc1ccc(OS(=O)(=O)O)cc1)NC(=O)CCC(=O)O (stereo unspecified) | 51% |
| CCCCCNC(=O)C(Cc1ccc(OCC(N)=O)c(C(=O)O)c1)NC(=O)CCC(=O)O (stereo unspecified) | 5% |
| CCCCCNC(=O)C(Cc1ccc(OC(C(=O)O)C(=O)O)cc1)NC(=O)[C@H](CC(=O)O)NC(=O)CCC(=O)O (stereo partly specified) | 95% |
| CCCCCNC(=O)C(Cc1ccc(OC(C(=O)O)C(=O)O)cc1)NC(=O)[C@H](Cc1ccccc1)NC(=O)CCC(=O)O (stereo partly specified) | 99% |

System: not listed separately
Test: Uptake of 2-deoxyglucose into L-6 myocytes, measurements were taken in absence of insulin (basal), assayed at 100 uM
Format: functional
Conditions: not given

| SMILES | 2-deoxyglucose uptake, % of control |
| --- | --- |
| CCCCCNC(=O)C(Cc1ccc(OCC(=O)O)c(C(=O)O)c1)NC(=O)[C@H](Cc1ccccc1)NC(=O)OC(C)(C)C (stereo partly specified) | 81% |

System: not listed separately
Test: Uptake of 2-deoxyglucose into L-6 myocytes, measurements were taken in presence of insulin (+ins), assayed at 100 uM
Format: functional
Conditions: not given

| SMILES | 2-deoxyglucose uptake, % of control |
| --- | --- |
| CCCCCNC(=O)C(Cc1ccc(OCC(=O)O)c(C(=O)O)c1)NC(=O)[C@H](Cc1ccccc1)NC(=O)OC(C)(C)C (stereo partly specified) | 108% |

Molecular target: Receptor-type tyrosine-protein phosphatase F (Homo sapiens) (UniProt P10586)
Test: Percent inhibition of Protein-tyrosine phosphatase Lar assayed at 100 uM
Conditions: not given

Sequence of Receptor-type tyrosine-protein phosphatase F (Homo sapiens) (P10586 whole entry): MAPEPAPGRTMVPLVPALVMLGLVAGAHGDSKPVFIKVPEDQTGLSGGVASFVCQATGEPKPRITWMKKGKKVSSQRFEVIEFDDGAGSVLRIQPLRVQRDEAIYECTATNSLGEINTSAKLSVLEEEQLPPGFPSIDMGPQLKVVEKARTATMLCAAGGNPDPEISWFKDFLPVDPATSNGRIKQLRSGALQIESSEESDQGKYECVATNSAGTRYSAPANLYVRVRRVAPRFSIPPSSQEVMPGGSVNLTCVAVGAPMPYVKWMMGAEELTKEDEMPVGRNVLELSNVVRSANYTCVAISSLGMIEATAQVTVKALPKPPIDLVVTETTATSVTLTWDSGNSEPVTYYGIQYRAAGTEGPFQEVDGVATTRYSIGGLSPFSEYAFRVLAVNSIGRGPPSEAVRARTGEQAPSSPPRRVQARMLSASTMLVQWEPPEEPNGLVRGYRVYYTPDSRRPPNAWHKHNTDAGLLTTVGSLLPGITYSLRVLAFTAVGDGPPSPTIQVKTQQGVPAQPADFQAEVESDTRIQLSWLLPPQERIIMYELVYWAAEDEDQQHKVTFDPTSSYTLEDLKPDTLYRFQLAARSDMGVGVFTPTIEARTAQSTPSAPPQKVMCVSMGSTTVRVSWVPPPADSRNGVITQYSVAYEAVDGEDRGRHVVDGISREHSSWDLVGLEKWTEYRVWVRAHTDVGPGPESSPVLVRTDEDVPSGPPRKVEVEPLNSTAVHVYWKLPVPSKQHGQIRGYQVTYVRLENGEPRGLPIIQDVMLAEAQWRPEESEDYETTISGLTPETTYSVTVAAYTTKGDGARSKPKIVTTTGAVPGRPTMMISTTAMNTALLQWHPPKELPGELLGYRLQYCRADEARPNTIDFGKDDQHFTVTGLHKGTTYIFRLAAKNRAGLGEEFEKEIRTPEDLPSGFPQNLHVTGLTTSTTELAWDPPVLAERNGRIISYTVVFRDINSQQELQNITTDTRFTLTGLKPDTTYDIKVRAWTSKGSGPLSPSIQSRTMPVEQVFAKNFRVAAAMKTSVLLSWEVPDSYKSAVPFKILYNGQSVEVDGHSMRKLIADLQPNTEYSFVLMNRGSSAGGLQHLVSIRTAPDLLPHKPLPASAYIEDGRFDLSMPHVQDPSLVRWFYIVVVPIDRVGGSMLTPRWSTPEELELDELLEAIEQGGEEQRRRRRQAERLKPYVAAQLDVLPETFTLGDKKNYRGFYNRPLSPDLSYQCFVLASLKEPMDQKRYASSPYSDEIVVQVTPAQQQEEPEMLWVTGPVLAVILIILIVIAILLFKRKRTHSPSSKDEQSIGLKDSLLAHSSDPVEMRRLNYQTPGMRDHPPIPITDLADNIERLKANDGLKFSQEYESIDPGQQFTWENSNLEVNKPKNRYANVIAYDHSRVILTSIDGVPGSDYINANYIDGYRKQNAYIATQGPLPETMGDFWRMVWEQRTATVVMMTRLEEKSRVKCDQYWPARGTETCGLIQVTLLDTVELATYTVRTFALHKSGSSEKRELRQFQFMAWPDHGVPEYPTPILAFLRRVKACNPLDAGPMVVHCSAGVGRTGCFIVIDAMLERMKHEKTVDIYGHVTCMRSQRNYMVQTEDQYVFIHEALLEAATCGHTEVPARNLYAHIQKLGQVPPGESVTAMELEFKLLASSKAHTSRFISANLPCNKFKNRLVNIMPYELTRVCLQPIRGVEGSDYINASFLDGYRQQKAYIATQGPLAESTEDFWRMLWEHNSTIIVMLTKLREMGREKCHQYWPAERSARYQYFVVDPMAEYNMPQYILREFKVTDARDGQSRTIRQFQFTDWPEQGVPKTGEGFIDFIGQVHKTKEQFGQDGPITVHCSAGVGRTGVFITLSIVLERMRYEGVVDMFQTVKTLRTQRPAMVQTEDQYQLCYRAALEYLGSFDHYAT

| SMILES | inhibition |
| --- | --- |
| CCCCCNC(=O)C(Cc1ccc(OC(C(=O)O)C(=O)O)cc1)NC(=O)[C@H](Cc1ccccc1)NC(=O)OC(C)(C)C (stereo partly specified) | 27% |
| CCCCCNC(=O)C(Cc1ccc(OC(C(=O)O)C(=O)O)cc1)NC(=O)[C@H](C)NC(=O)OC(C)(C)C (stereo partly specified) | 0% |
| CCCCCNC(=O)C(Cc1ccc(OCC(=O)O)c(C(=O)O)c1)NC(=O)[C@H](Cc1ccccc1)NC(=O)OC(C)(C)C (stereo partly specified) | 0% |
| CCCCCNC(=O)C(Cc1ccc(OC(C(=O)O)C(=O)O)cc1)NC(=O)CCC(=O)O (stereo unspecified) | 2% |
| CCCCCNC(=O)C(Cc1ccc(OS(=O)(=O)O)cc1)NC(=O)CCC(=O)O (stereo unspecified) | 5% |
| CCCCCNC(=O)C(Cc1ccc(OCC(N)=O)c(C(=O)O)c1)NC(=O)CCC(=O)O (stereo unspecified) | 0% |
| CCCCCNC(=O)C(Cc1ccc(OC(C(=O)O)C(=O)O)cc1)NC(=O)[C@H](CC(=O)O)NC(=O)CCC(=O)O (stereo partly specified) | 7% |
| CCCCCNC(=O)C(Cc1ccc(OC(C(=O)O)C(=O)O)cc1)NC(=O)[C@H](Cc1ccccc1)NC(=O)CCC(=O)O (stereo partly specified) | 23% |
| CCCCCNC(=O)C(Cc1ccc(OC(C(=O)O)C(=O)O)c(F)c1)NC(=O)CCC(=O)O (stereo unspecified) | 4% |
| CCCCCNC(=O)C(Cc1ccc(OC(C(=O)O)C(=O)O)cc1)NC(=O)[C@H](Cc1ccc(OC)cc1)NC(=O)OC(C)(C)C (stereo partly specified) | 30% |
| CCCCCNC(=O)C(Cc1ccc(OC(C(=O)O)C(=O)O)cc1)NC(=O)[C@H](CC(=O)O)NC(=O)OC(C)(C)C (stereo partly specified) | 10% |
| CCCCCNC(=O)C(Cc1ccc(OC(C(=O)O)C(=O)O)cc1)NC(=O)[C@H]1CCCC[C@H]1C(=O)O (stereo partly specified) | 8% |
